Laboratory results: patent EP1531819B1, “USE OF I kappa B KINASE INHIBITORS FOR THE TREATMENT OF PAIN” (Sanofi-Aventis Deutschland GmbH, priority 2002, dated 2004)

Experiments:
[1] = test system: Zymosan-induzierte Pfotenentzündung bei der Ratte; test: Model 1a: zymosan-induced paw inflammation, paw withdrawal latency on thermal stimulation (Hargreaves Test); assay type: in vivo
[2] = test system: Zymosan-induzierte Pfotenentzündung bei der Ratte; test: Model 1b: zymosan-induced paw inflammation, paw withdrawal threshold on mechanical stimulation (von Frey Test); assay type: in vivo
[3] = test system: Zymosan-induzierte Pfotenentzündung bei der Maus; test: Model 4: zymosan-induced paw inflammation, spontaneous running wheel performance, AUC; assay type: in vivo, C57/B6 Mäuse; details: for AUC Mittelwert (Laufradaktivität): 7 days after Zymosan; for Statistischer Unterschied gegenüber Vehikel: Laufradaktivität AUC
Text: Das Versuchstier hat in seinem Haltungskäfig Zugang zu einem Laufrad, dessen Umdrehungen elektronisch registriert werden. Die C57/B6 Mäuse benutzen in den Nachtstunden freiwillig das Laufrad und legen im Mittel nach einer einwöchigen Gewöhnungsphase 4100 Meter/Nacht zurück. Nach Zymosan Injektion ist die nächtliche Laufstrecke verkürzt. Diese Abnahme der Laufleistung gilt als Parameter für entzündungsschmerzbedingte Funktionseinschränkung. Versuchsdurchführung: Die Laufstrecke/24 Std. wurde nach einer Eingewöhnungsphase eine Woche lang zur Bestimmung der Baseline gemessen. Dann wurde in Kurzzeitnarkose mit Isofluran dem Versuchstier 25 µl einer Suspension, die […] Zymosan enthielt, in die rechte Hinterpfote injiziert. Anschließend wurde Laufstrecke/24 Std. während der nächsten sieben Tage ermittelt. In der Auswertung wurde die Fläche unter der Kurve der Laufstreckenwerte bestimmt (AUC, Tab. 7): je kleiner die AUC, desto geringer die Laufleistung in der Woche nach Zymosan Injektion. […] Die Substanzgabe wurde am Tag 1 nach Zymosan Injektion begonnen.

[4] = test system: Kaolin/Carrageenan induzierte Kniegelenksentzündung bei der Ratte; test: Model 2: kaolin/carrageenan-induced knee joint inflammation, responses of spinal neurons to pressure on the knee; assay type: in vivo
Text: Modell: Zymosan-induzierte Pfotenentzündung bei der Ratte; Parameter: Pfotenwegziehzeit oder Pfotenwegziehschwelle bei thermischer oder mechanischer Stimulation der Hinterpfote. • 2. Modell: Kaolin/Carrageenan induzierte Kniegelenksentzündung bei der Ratte; Parameter: Reaktion spinaler Neurone bei Druckreizung des Knies.
Versuchsdurchführung: Bei Ratten wurde in Trapanal-Narkose der Wirbelkanal eröffnet und Rückenmarksneurone, die "Schmerzimpulse" aus dem Kniegelenk verarbeiteten, identifiziert. Nach Identifizierung wurde eine Langzeitableitung durchgeführt, in der die Aktivität der Nervenzelle vor und während der Entwicklung einer akuten Entzündung im Kniegelenk registriert wurde. Dazu wurden in einer Kontrollperiode vor Induktion der Entzündung und nach Induktion der Entzündung für mehrere Stunden die Antworten auf nicht noxische und noxische Reizung am Kniegelenk gemessen.
Die akute Entzündung wurde durch die intraartikuläre Injektion einer Kaolin und Carrageenan Suspension (etwa 150 µl) induziert. In Kontrollexperimenten wurde nur das Vehikel auf die Rückenmarksoberfläche aufgebracht, um die Entwicklung der Übererregbarkeit unter Kontrollbedingungen darzustellen. In der Regel fand diese Entwicklung der Übererregbarkeit innerhalb von 2 bis 4 Stunden statt, und sie äußerte sich in einer starken Zunahme der Antworten auf nicht noxische und noxische Reizung des Kniegelenks (Tab. 3). […] Dann wurden die Antworten der Zelle auf nichtnoxische und noxische Reizung wie in den Kontrollexperimenten weiter verfolgt.

[5] = test system: Zymosan-induzierte Pfotenentzündung bei der Maus; test: Model 3: zymosan-induced paw inflammation, paw withdrawal latency on thermal stimulation (Hargreaves Test), AUC; assay type: in vivo; details: for Statistischer Unterschied gegenüber Vehikel: thermische Hyperalgesie AUC; for AUC Mittelwert [Maß für Hyperalgesie]: thermische Hyperalgesie
Experimental: Parameter: Pfotenwegziehzeit bei thermischer Stimulation der Hinterpfote. Versuchsdurchführung: In Kurzzeitnarkose mit Isofluran wurde dem Versuchstier 25 μl einer Suspension, die 50 mg/ml Zymosan enthielt, in die rechte Hinterpfote injiziert. Dann wurde die […] quantitativ wie folgt bestimmt: Bestimmung der Pfotenwegziehzeit bei thermischer Stimulation (Hargreaves Test; s.o.). Das Versuchstier wurde in […] Versuchstier nach der Erkundungsphase (etwa 5 min) nicht mehr bewegte, wurde […] zu stimulierenden Hinterpfote positioniert und […]. Die […] ab, so dass die Hauttemperatur […] linear […] Pfote […] ab. Die Pfotentemperatur zum Zeitpunkt des Wegziehens ist für das Tier gerade eben unangenehm, […] von thermischer Schmerzschwelle. Kurz vor Zymosan-Injektion und für 7 bis 14 Tage nach Injektion wurde […] an der rechten und linken Hinterpfote bestimmt. Anschließend wurde […] Integral der Fläche, die aus […] und […] Pfote gebildet wurde, bestimmt (AUC, area between the curves, s. Tabellen 5 und 6). Je größer dieser Wert ist, umso […], und je kleiner der Wert bei Tieren, die die Substanz erhalten, desto stärker ist der Therapieerfolg. In einer 7-Tage Studie induzierte die Zymosan Injektion in […], Tab. 5). In den anderen Gruppen wurde die Substanzgabe einen Tag nach Zymosan Injektion, […] schon […]. […] Die […] Studie (7 Tage) ergab, dass die AUC unter Substanzgabe dosisabhängig abnahm. […] In einer parallel […] von Tieren wurde Paracetamol in einer sehr hohen Dosis ebenfalls zweimal am Tag verabreicht. […] Paracetamol (Tab. 5). […] […] Zymosan Injektion und Dosierschema […] zuvor beschriebenen Studie. Einziger Unterschied war, dass die weitere Studie über 14 Tage lief.

[6] = je 30 mg/kg i.p. (x3), 0,5 h nach Zymosan-Injektion
[7] = je 30 mg/kg i.p. (x3), 1 h nach Zymosan-Injektion
[8] = je 30 mg/kg i.p. (x3), 2 h nach Zymosan-Injektion
[9] = je 30 mg/kg i.p. (x3), 3 h nach Zymosan-Injektion
[10] = je 30 mg/kg i.p. (x3), 4 h nach Zymosan-Injektion
[11] = je 30 mg/kg i.p. (x3), 5 h nach Zymosan-Injektion
[12] = je 30 mg/kg i.p. (x3), 6 h nach Zymosan-Injektion
[13] = je 30 mg/kg i.p. (x3), 7 h nach Zymosan-Injektion
[14] = je 30 mg/kg i.p. (x3), 24 h nach Zymosan-Injektion
[15] = je 30 mg/kg i.p. (x3), Baseline -0,5 h
[16] = 7 days, 2.8 mg/kg oral twice daily
[17] = 7 days, 25 mg/kg oral twice daily
[18] = 7 days, 75 mg/kg oral twice daily
[19] = etwa 30 µl of 10 µM Lösung on the spinal cord, 30-60 min nach K/C-Injektion
[20] = etwa 30 µl of 10 µM Lösung on the spinal cord, 60-120 min nach K/C-Injektion
[21] = etwa 30 µl of 10 µM Lösung on the spinal cord, 120-180 min nach K/C-Injektion
[22] = etwa 30 µl of 10 µM Lösung on the spinal cord, 180-240 min nach K/C-Injektion
[23] = etwa 30 µl of 10 µM Lösung on the spinal cord, Baseline

CNc1nccc(-c2cc3cc(C(=O)N[C@@H](CN(c4ccccc4)c4ccccc4)c4n[nH]c(=O)o4)ccc3[nH]2)n1 [Verbindung 13, 2-(2-Methylamin-pyrimidin-4-yl)-1H-indol-5-carbonsäure [(S)-2-diphenylamin-1-(5-oxo-4,5-dihydro-[1,3,4]oxadiazol-2-yl)-ethyl]-amid]
thermische Hyperalgesie, comparison with Diclofenac ([1]; comparison data from an earlier study): erheblich stärker reduziert als das NSAID Diclofenac | thermische Hyperalgesie, duration of effect nach der letzten Substanzgabe ([1]; je 30 mg/kg i.p. (x3)): > 18 Std. | Veränderung der Pfotenwegziehzeit (%) Mittelwert [1, 6]: -16,6% | Veränderung der Pfotenwegziehzeit (%) Mittelwert [1, 7]: -31,3% | Veränderung der Pfotenwegziehzeit (%) Mittelwert [1, 8]: -30,2% | Veränderung der Pfotenwegziehzeit (%) Mittelwert [1, 9]: -15,3% | Veränderung der Pfotenwegziehzeit (%) Mittelwert [1, 10]: -16,0% | Veränderung der Pfotenwegziehzeit (%) Mittelwert [1, 11]: -9,7% | Veränderung der Pfotenwegziehzeit (%) Mittelwert [1, 12]: 5,0% | Veränderung der Pfotenwegziehzeit (%) Mittelwert [1, 13]: 3,4% | Veränderung der Pfotenwegziehzeit (%) Mittelwert [1, 14]: -3,8% | Veränderung der Pfotenwegziehzeit (%) Mittelwert [1, 15]: 0,0% | thermische Hyperalgesie, Seitenunterschied in der Pfotenwegziehzeit ([1]; je 30 mg/kg i.p., after the third dose): überhaupt kein Seitenunterschied in der Pfotenwegziehzeit mehr zu finden | thermische Hyperalgesie compared with Kontrollgruppe ([1]; je 30 mg/kg i.p., from two hours after Zymosan Injektion): geringer ausgeprägt als in der Kontrollgruppe | mechanische Hyperalgesie ([2]; je 30 mg/kg i.p. (x3)): signifikant reduziert | mechanische Hyperalgesie, duration of effect nach der letzten Substanzgabe ([2]; je 30 mg/kg i.p. (x3)): ≥ 18 Std. | mechanische Hyperalgesie, onset of effect nach Zymosan Injektion ([2]; je 30 mg/kg i.p. (x3)): 1 Stunde | Veränderung der Pfotenwegziehschwelle (%) Mittelwert [2, 6]: -37,4% | Veränderung der Pfotenwegziehschwelle (%) Mittelwert [2, 7]: -43,1% | Veränderung der Pfotenwegziehschwelle (%) Mittelwert [2, 8]: -36,0% | Veränderung der Pfotenwegziehschwelle (%) Mittelwert [2, 9]: -35,1% | Veränderung der Pfotenwegziehschwelle (%) Mittelwert [2, 10]: -46,7% | Veränderung der Pfotenwegziehschwelle (%) Mittelwert [2, 11]: -40,6% | Veränderung der Pfotenwegziehschwelle (%) Mittelwert [2, 12]: -33,1% | Veränderung der Pfotenwegziehschwelle (%) Mittelwert [2, 13]: -44,7% | Veränderung der Pfotenwegziehschwelle (%) Mittelwert [2, 14]: -9,7% | Veränderung der Pfotenwegziehschwelle (%) Mittelwert [2, 15]: 0,0% | AUC Mittelwert (Laufradaktivität) ([3]; 2.8 mg/kg oral twice daily): 131.1 | AUC Mittelwert (Laufradaktivität) ([3]; 25 mg/kg oral twice daily): 216.7 | AUC Mittelwert (Laufradaktivität) ([3]; 75 mg/kg oral twice daily): 251.7 | Laufleistung nach Zymosan Injektion gegenüber der Vehikelgruppe ([3]; 7 days, twice daily): dosisabhängige Steigerung der Laufstrecke | Statistischer Unterschied gegenüber Vehikel [3, 16]: nein | Statistischer Unterschied gegenüber Vehikel [3, 17]: ja | Statistischer Unterschied gegenüber Vehikel [3, 18]: ja | Wirkung auf die Antworten auf noxische Kniegelenksstimulation, comparison with Indomethacin ([4]; comparison with published data of an earlier study): insgesamt stärker ausgeprägt als die Wirkung von Indomethacin | Entwicklung der spinalen Übererregbarkeit gegenüber den Kontrollen ([4]; etwa 30 µl of 10 µM Lösung on the spinal cord): beinahe vollständig unterdrückt | Neuronale Antworten vor und während Kniegelenksentzündung, Nicht-noxische Reizung am Kniegelenk, Mittelwert [4, 19]: 8,66 imp/15s | Neuronale Antworten vor und während Kniegelenksentzündung, Noxische Reizung am Kniegelenk, Mittelwert [4, 19]: 62,3 imp/15s | Neuronale Antworten vor und während Kniegelenksentzündung, Nicht-noxische Reizung am Kniegelenk, Mittelwert [4, 20]: 2,71 imp/15s | Neuronale Antworten vor und während Kniegelenksentzündung, Noxische Reizung am Kniegelenk, Mittelwert [4, 20]: 26,9 imp/15s | Neuronale Antworten vor und während Kniegelenksentzündung, Nicht-noxische Reizung am Kniegelenk, Mittelwert [4, 21]: 11,16 imp/15s | Neuronale Antworten vor und während Kniegelenksentzündung, Noxische Reizung am Kniegelenk, Mittelwert [4, 21]: 8,5 imp/15s | Neuronale Antworten vor und während Kniegelenksentzündung, Nicht-noxische Reizung am Kniegelenk, Mittelwert [4, 22]: 39,78 imp/15s | Neuronale Antworten vor und während Kniegelenksentzündung, Noxische Reizung am Kniegelenk, Mittelwert [4, 22]: 19,5 imp/15s | Neuronale Antworten vor und während Kniegelenksentzündung, Nicht-noxische Reizung am Kniegelenk, Mittelwert [4, 23]: 0,92 imp/15s | Neuronale Antworten vor und während Kniegelenksentzündung, Noxische Reizung am Kniegelenk, Mittelwert [4, 23]: 0,8 imp/15s | thermische Hyperalgesie, comparison with Paracetamol ([5]; 7-day study, twice daily): stärker als Paracetamol | Effekte on thermische Hyperalgesie in der hohen Dosierung ([5]; 14-day study, high dose (25 mg/kg)): gleich stark | minimal effective dose ([5]; 168 h, 7-day study, oral twice daily, read-out: Einzeldosis from which Therapieerfolg signifikant gegenüber der Vehikelgruppe): ≥ 8.3 mg/kg | Statistischer Unterschied gegenüber Vehikel [5, 16]: nein | Statistischer Unterschied gegenüber Vehikel [5, 17]: ja | Statistischer Unterschied gegenüber Vehikel [5, 18]: ja | Statistischer Unterschied gegenüber Vehikel ([5]; 14 days, 25 mg/kg twice daily): ja | AUC Mittelwert [Maß für Hyperalgesie] ([5]; 7 days after Zymosan, 2.8 mg/kg oral twice daily): 40.4 | AUC Mittelwert [Maß für Hyperalgesie] ([5]; 7 days after Zymosan, 25 mg/kg oral twice daily): 19.4 | AUC Mittelwert [Maß für Hyperalgesie] ([5]; 7 days after Zymosan, 75 mg/kg oral twice daily): 17.4 | AUC Mittelwert [Maß für Hyperalgesie] ([5]; 14 days after Zymosan, 25 mg/kg twice daily): 47.6
